Data as given in patent US6852759B2, “Process for the synthesis of trans-alkenoic acids, use thereof” (priority 2002, dated 2005).

Experiments:
[1] = tested on: CCl4 induced hepatic injury in rats; experiment: Hepatoprotective activity, curative study, CCl4; type: in vivo
[2] = tested on: acetaminophen (APAP) in mice; experiment: Hepatoprotective activity, curative study, acetaminophen (APAP) after diethyl-ether; type: in vivo
[3] = tested on: D-Galactosamine (Gal N) induced hepatic injury in rats; experiment: Hepatoprotective activity, prophylactic study, D-Galactosamine; type: in vivo
[4] = tested on: CCl4, Paracetamol, Galactosamine and alcohol as hepatotoxins; experiment: Antihepatotoxicity/hepato-protective activity in vivo, overall comparison with silymarin; conditions: prophylactic and curative aspects in vivo
[5] = 100 mg/kg p.o. + CCl4, curative
[6] = TCA alone 100 mg/kg p.o., no CCl4, curative study
[7] = 12.5 mg/kg p.o. + APAP, curative
[8] = 100 mg/kg p.o. + APAP, curative
[9] = TCA alone 100 mg/kg p.o., no APAP, curative study
[10] = 12.5 mg/kg p.o. + Gal N, prophylactic
[11] = 25 mg/kg p.o. + Gal N, prophylactic
[12] = 50 mg/kg p.o. + Gal N, prophylactic
[13] = TCA alone 100 mg/kg p.o., no Gal N, prophylactic study

CCCCCCCC/C=C/CCCCCCCCCCCCCC(=O)O [TCA, t-Tetracos-15-enoic acid]
Serum GPT [1, 5]: 457.55 ± 18.18 Units | Serum GPT, hepatoprotective activity percent [1, 5]: (73.41 ± 1.26) percent | Serum Triglycerides [1, 5]: 10.37 ± 0.65 mg % | Serum Triglycerides, hepatoprotective activity percent [1, 5]: (61.02 ± 11.24) percent | Serum ALP [1, 6]: 25.84 ± 2.32 μmole of p-nitrophenol formed/min/L | Serum Bilirubin [1, 6]: 0.16 ± 0.02 mg % | Serum GOT [1, 6]: 82.13 ± 10.59 Units | Serum GPT [1, 6]: 92.18 ± 15.75 Units | Serum Triglycerides [1, 6]: 6.98 ± 0.86 mg % | Serum ALP [2, 7]: 50.41 ± 3.07^NS μmole of p-nitophenol formed/min/L | Serum ALP, hepatoprotective activity percent [2, 7]: (21.27 ± 9.50) percent | Serum GOT [2, 7]: 1079.43 ± 98.66^NS Units | Serum GOT, hepatoprotective activity percent [2, 7]: (25.66 ± 7.72) percent | Serum GPT [2, 7]: 431.85 ± 25.52 Units | Serum GPT, hepatoprotective activity percent [2, 7]: (49.67 ± 2.81) percent | Serum Triglycerides [2, 7]: 14.72 ± 0.68^NS mg % | Serum Triglycerides, hepatoprotective activity percent [2, 7]: (28.28 ± 8.27) percent | Serum ALP ([2]; 25 mg/kg p.o. + APAP, curative): 46.23 ± 1.73 μmole of p-nitophenol formed/min/L | Serum ALP, hepatoprotective activity percent ([2]; 25 mg/kg p.o. + APAP, curative): (34.15 ± 5.39) percent | Serum GOT ([2]; 25 mg/kg p.o. + APAP, curative): 880.10 ± 60.29 Units | Serum GOT, hepatoprotective activity percent ([2]; 25 mg/kg p.o. + APAP, curative): (41.26 ± 4.72) percent | Serum GPT ([2]; 25 mg/kg p.o. + APAP, curative): 320.07 ± 41.33 Units | Serum GPT, hepatoprotective activity percent ([2]; 25 mg/kg p.o. + APAP, curative): (67.52 ± 7.71) percent | Serum Triglycerides ([2]; 25 mg/kg p.o. + APAP, curative): 13.47 ± 0.89^NS mg % | Serum Triglycerides, hepatoprotective activity percent ([2]; 25 mg/kg p.o. + APAP, curative): (43.32 ± 10.80) percent | Serum ALP ([2]; 50 mg/kg p.o. + APAP, curative): 41.44 ± 1.27 μmole of p-nitophenol formed/min/L | Serum ALP, hepatoprotective activity percent ([2]; 50 mg/kg p.o. + APAP, curative): (49.04 ± 3.94) percent | Serum GOT ([2]; 50 mg/kg p.o. + APAP, curative): 619.36 ± 88.89 Units | Serum GOT, hepatoprotective activity percent ([2]; 50 mg/kg p.o. + APAP, curative): (61.67 ± 6.96) percent | Serum GPT ([2]; 50 mg/kg p.o. + APAP, curative): 282.74 ± 32.96 Units | Serum Triglycerides ([2]; 50 mg/kg p.o. + APAP, curative): 12.34 ± 0.85 mg % | Serum Triglycerides, hepatoprotective activity percent ([2]; 50 mg/kg p.o. + APAP, curative): (56.84 ± 10.23) percent | Serum ALP [2, 8]: 35.08 ± 2.18 μmole of p-nitophenol formed/min/L | Serum ALP, hepatoprotective activity percent [2, 8]: (68.82 ± 6.78) percent | Serum GOT [2, 8]: 310.53 ± 45.32 Units | Serum GOT, hepatoprotective activity percent [2, 8]: (85.85 ± 4.25) percent | Serum GPT [2, 8]: 235.59 ± 22.77 Units | Serum GPT, hepatoprotective activity percent [2, 8]: (83.33 ± 1.99) percent | Serum Triglycerides [2, 8]: 10.87 ± 0.69 mg % | Serum Triglycerides, hepatoprotective activity percent [2, 8]: (74.48 ± 8.37) percent | Serum ALP [2, 9]: 22.57 ± 2.95 μmole of p-nitophenol formed/min/L | Serum GOT [2, 9]: 133.77 ± 20.84 Units | Serum GPT [2, 9]: 129.65 ± 24.84 Units | Serum Triglycerides [2, 9]: 7.43 ± 0.89 mg % | Serum ALP [3, 10]: 47.07 ± 2.98 μmole of p-nitrophenol formed/min/L | Serum ALP, hepatoprotective activity percent [3, 10]: (30.88 ± 7.77) percent | Serum Bilirubin [3, 10]: 0.56 ± 0.03 mg % | Serum Bilirubin, hepatoprotective activity percent [3, 10]: (39.49 ± 4.59) percent | Serum GOT [3, 10]: 613.20 ± 65.19 Units | Serum GOT, hepatoprotective activity percent [3, 10]: (34.60 ± 7.57) percent | Serum GPT [3, 10]: 743.62 ± 66.83 Units | Serum GPT, hepatoprotective activity percent [3, 10]: (39.30 ± 6.25) percent | Serum Triglycerides [3, 10]: 26.49 ± 1.88 mg % | Serum Triglycerides, hepatoprotective activity percent [3, 10]: (37.38 ± 6.18) percent | Serum ALP [3, 11]: 40.49 ± 2.29 μmole of p-nitrophenol formed/min/L | Serum ALP, hepatoprotective activity percent [3, 11]: (51.62 ± 6.31) percent | Serum Bilirubin [3, 11]: 0.44 ± 0.05 mg % | Serum Bilirubin, hepatoprotective activity percent [3, 11]: (58.00 ± 3.86) percent | Serum GOT [3, 11]: 505.26 ± 29.63 Units | Serum GOT, hepatoprotective activity percent [3, 11]: (47.68 ± 3.99) percent | Serum GPT [3, 11]: 635.11 ± 54.67 Units | Serum GPT, hepatoprotective activity percent [3, 11]: (49.35 ± 5.16) percent | Serum Triglycerides [3, 11]: 23.58 ± 2.02 mg % | Serum Triglycerides, hepatoprotective activity percent [3, 11]: (46.97 ± 6.67) percent | Serum ALP [3, 12]: 34.94 ± 1.43 μmole of p-nitrophenol formed/min/L | Serum ALP, hepatoprotective activity percent [3, 12]: (66.91 ± 3.92) percent | Serum Bilirubin [3, 12]: 0.36 ± 0.02 mg % | Serum Bilirubin, hepatoprotective activity percent [3, 12]: (70.76 ± 2.78) percent | Serum GOT [3, 12]: 406.05 ± 25.82 Units | Serum GOT, hepatoprotective activity percent [3, 12]: (61.05 ± 3.48) percent | Serum GPT [3, 12]: 413.53 ± 23.94 Units | Serum GPT, hepatoprotective activity percent [3, 12]: (70.34 ± 2.25) percent | Serum Triglycerides [3, 12]: 21.37 ± 1.51 mg % | Serum Triglycerides, hepatoprotective activity percent [3, 12]: (54.25 ± 4.97) percent | Serum ALP [3, 13]: 19.84 ± 1.58 μmole of p-nitrophenol formed/min/L | Serum Bilirubin [3, 13]: 0.20 ± 0.02 mg % | Serum GOT [3, 13]: 122.47 ± 11.84 Units | Serum GPT [3, 13]: 95.22 ± 8.74 Units | Serum Triglycerides [3, 13]: 8.79 ± 0.55 mg % | antihepatotoxicity/hepato-protective activity compared with silymarin [4]: better protection and reversal of biochemical parameters better then those obtained with silymarin
